Source: US20160158258A1, “PREVENTION AND TREATMENT OF INFLAMMATORY CONDITIONS” (GLYCOREGIMMUNE, INC., priority 2014, published 2016)
Each block holds one compound with its values, some of them ahead of it.

Key:
type I NKT cells = test: alpha-GalCer stimulation of splenocytes from orally treated mice; type: in vivo, B6 mice; conditions: 1 mg oral gavage daily for 7 days; splenocytes cultured 90 hrs; 10 ng/ml alpha-GalCer
Description: Naïve B6 mice were treated every day for 7 days with DMSO (Control) or Miltefosine 1 mg (dissolved in DMSO and diluted into PBS), using oral gavage. Splenocytes were cultured in vitro for 90 hrs in the presence or absence of alpha-GalCer. Stimulation (as stimulation Index) and expansion of type I NKT cells (as FACS staining with alpha-GalCer/CD1d^−tetramer^+ cells) at 10 ng/ml of alpha-GalCer concentration is shown in both FIG. 2A and FIG. 2B.

[1] = tested on: alcoholic liver diseases (ALD); test: alcoholic liver disease, chronic plus binge EtOh feeding; type: in vivo, C57BL/6 mice
Text: Groups of C57BL/6 mice were fed liquid alcohol (EtOh) diet or isocaloric control (control) diet for 10 day either containing miltefosine (˜500 micrograms per day) or DMSO/PBS. On day 11, 9 hr after the binge (chronic plus binge feeding), accumulation and activation of type I NKT cells (alpha-GalCer/CD1d^−tetramer^+ cells) or neutrophils (Ly^−6 G^+ CD11b^+) were examined in liver. As shown in FIG. 4A and FIG. 4B, in comparison to the control diet group, type I NKT cells accumulate into liver in mice fed liquid chronic plus binge EtOh diet. Also as shown in FIG. 4C and FIG. 4D, type I NKT cells become activated (as examined by the expression of CD69 cell surface expression in alpha-GalCer/CD1d-tetrame^+ cells) accompanied by accumulation of neutrophils (Ly^−6 G^+ CD11b^+ cells) into liver. Accumulation of activated type I NKT cells and neutrophils leads to inflammatory cascade resulting in heaptocyte injury during ALD.

liver mononuclear cells = test: flow cytometry of liver mononuclear cells after oral treatment; type: in vivo, SJL/J mice; conditions: 1 mg orally before and during disease; day 59
Description: Groups of female SJL/J mice were administered orally with 1 mg of miltefosine as shown in the FIG. 2, before and during the course of disease. Mice were sacrificed on day 59.

CD1d = target: T1, CD1d (Mus musculus, UniProt P11609); test: plate-bound CD1d assay: binding to CD1d; conditions: concluded from plate-bound CD1d assay
T1 sequence (P11609 19-297 limits assumed): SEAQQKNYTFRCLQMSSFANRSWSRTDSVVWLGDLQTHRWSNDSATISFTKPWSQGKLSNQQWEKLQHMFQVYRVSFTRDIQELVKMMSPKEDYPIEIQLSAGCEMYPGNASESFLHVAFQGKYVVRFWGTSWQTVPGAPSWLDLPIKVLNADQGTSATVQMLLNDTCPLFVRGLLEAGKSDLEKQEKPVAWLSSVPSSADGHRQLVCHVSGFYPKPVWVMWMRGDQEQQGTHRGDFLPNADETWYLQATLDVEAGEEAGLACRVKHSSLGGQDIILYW
T1 sequence (P01887 21-119 partner): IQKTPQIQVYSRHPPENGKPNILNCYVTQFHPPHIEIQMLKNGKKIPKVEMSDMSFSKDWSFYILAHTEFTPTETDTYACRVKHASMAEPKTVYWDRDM
Description: (§1) The CD1d protein coated 96-well plates were incubated with the indicated lipids for 6 hr, washed and a type II NKT cell Hy 19.3 was added (50,000 cells/well) and IL-2 measured 16 hr later in the supernatant. LSF, lysosulftatide; LPC, lysophosphatidylcholine.

ConA-induced hepatitis [2] = test: ConA-induced hepatitis; type: in vivo, BL/6 mice
Description: Groups of BL/6 mice were either administered with DMSO/PBS or miltefosine 12 hr before ConA administration and liver injury was determined by H&E staining of liver sections and liver enzymes, such as ALT in serum examined 24 hr later (FIG. 3A and FIG. 3B). Data shown are representative of 2 independent experiments.

[3] = tested on: type II NKT cell hybridoma, Hy19.3; test: plate-bound CD1d assay: IL-2 from type II NKT cell hybridoma; type: cell-based; conditions: CD1d coated plates incubated with lipid 6 hr; 50,000 cells/well; IL-2 measured 16 hr later
Description: as §1

[4] = tested on: chronic and relapsing experimental autoimmune encephalomyelitis (EAE); test: chronic and relapsing EAE; type: in vivo, SJL mice
Description: Groups of SJL mice were orally gavaged with miltefosine (1 mg in 200 microliters of 10% DMSO/PBS) or control (DMSO/PBS), twice a week as indicated by arrows. Clinical severity of disease was monitored daily as paralysis in both groups of mice from scale 1 to 5 and shown.

[5] = tested on: liver damage caused by alcohol consumption; conditions: description, no example; cited from earlier work
[6] = tested on: conventional MHC-restricted CD4+ T cells; conditions: description, no example; cited from earlier work
type I NKT cell = conditions: description, no example; also in the absence of antigen-presenting cells; cited from earlier work
ConA-induced hepatitis [7] = conditions: description, no example; cited from earlier work
[8] = tested on: type I NKT cells; sulfatide/CD1d-tetramer+ cells; conditions: after administration in vivo; cited from earlier work
[9] = tested on: hepatic ischemia and reperfusion injury; conditions: cited from earlier work
[10] = tested on: chronic experimental autoimmune encephalomyelitis (EAE); test: EAE, oral sulfatide; type: in vivo, B6 mice; conditions: oral 200 micrograms for 7 days, starting one day before disease induction
Text: However as shown in FIG. 6 oral treatment with sulfatide though inhibits disease initially when given orally but not very efficient. Without being limited by any theory, it is contemplated that sulfatide is not very stable in the gut, which is consistent with the observed low efficiency. With reference to FIG. 6, groups of B6 mice were orally treated with sulfatide (200 micrograms in 200 microliters in PBS) for 7 days, starting one day before the disease induction. Clinical paralysis was monitored daily and scored from 1 to 5. […] Without being limited by any theory, the observed similarity of both groups in consistent with instability of sulfatide in the gut.

[11] = ~500 micrograms per day in EtOh diet 10 day, day 11, 9 hr after binge

- binding to CD1d molecules (CD1d): can bind to CD1d molecules
Compound: CCCCCCCCCCCCCCCCOP(=O)([O-])OCC[N+](C)(C)C [miltefosine]
- type I NKT cells proliferation and expansion in the presence of alpha-GalCer (type I NKT cells): significant inhibition
- liver injury ([1]; ~500 micrograms per day in EtOh diet): protection from liver injury
- accumulation of type I NKT cells in liver [1, 11]: inhibited accumulation of type I NKT cells
- levels of activated (CD69+) type I NKT cells in liver [1, 11]: reduced levels of activated (CD69^+) NKT cells
- levels of neutrophils (Ly-6G+ CD11b+) in liver [1, 11]: reduced levels of neutrophils
- other CD4+ and CD8αβ+ T cells in liver, control vs. treated (liver mononuclear cells): not different
- regulatory CD8αα+ T cells in liver (liver mononuclear cells): significantly increased
- serum levels of ALT (ConA-induced hepatitis [2]; given 12 hours before ConA, 24 hours later): reduced serum levels of ALT
- liver injury following Con A injection (ConA-induced hepatitis [2]; given 12 hr before ConA): significant inhibition of liver injury
- necrosis, H&E staining of liver sections (ConA-induced hepatitis [2]; given 12 hr before ConA): decreased necrosis
- stimulation of type II NKT cell hybridoma Hy19.3 (IL-2 in the supernatant) [3]: able to stimulate
- clinical severity of disease (paralysis, scale 1 to 5) ([4]; oral gavage 1 mg twice a week): can be treated with miltefosine

Compound: CC1=C(/C=C/C(C)=C/C=C/C(C)=C/C(=O)O)C(C)(C)CCC1 [ATRA, all trans retinoic acid]
- liver damage following excess alcohol consumption [5]: significantly inhibits liver damage
- activity of conventional MHC-restricted CD4+ T cells that recognize protein antigens [6]: does not directly inhibit
- type I NKT cell effector function, including cytokine secretion (type I NKT cell): inhibits type I NKT cell effector function

Compound: 3′-sulfogalactosyl ceramide [sulfatide]
- liver damage following excess alcohol consumption [5]: almost complete protection from liver damage
- protection against ConA-induced hepatitis (hepatocellular necrosis, serum ALT and AST) (ConA-induced hepatitis [7]): can protect against Concanavalin A (ConA)-induced hepatitis
- chronic and relapsing EAE ([4]; SJL/J mice, route not stated): significant inhibition
- in vitro proliferation of type I NKT cells in response to alpha-GalCer [8]: suppress in vitro proliferation of type I NKT cells
- percentage of sulfatide/CD1d-tetramer+ cells with intracytoplasmic IFN-gamma staining [8]: increase the percentage of sulfatide/CD1d-tetramer+ cells with intracytoplasmic IFN-gamma staining
- secretion of IFN-gamma by hepatic type I NKT cells ([9]; early phase of ischemia and reperfusion injury, vs untreated animals): significantly decreased
- liver injury following ischemia/reperfusion ([9]; mice treated with sulfatide): significantly reduced
- duration of initial protection from clinical paralysis [10]: 4 to 5 days
